Assays:
live tumor fragment = experiment: Diffusion of a small molecule drug and an antibody into a live tumor fragment (fluorescence imaging); type: in vitro ADME; settings: live tumor fragment cultured at 37° C., time after addition
Procedure: Notable was gradual appearance of doxorubicin-characteristic fluorescence first in the periphery of tissue fragment at 15 minutes followed by full-thickness staining of the entire fragment area at 2 hours. […] Notable is plateau staining within about 5 h. As noted by this experiment, both small molecule drugs and large antibodies diffused into the live tissue fragments.

EMT6 tumor fragments [1] = experiment: NAD(P)H intensity multiphoton microscopy versus propidium iodide viability ground truth in cultured tumor fragments; type: cell-based, mouse; settings: after 24 h, treated versus untreated
Procedure: Live EMT6 tumors were cut into tissue fragments that were then sorted and cultured in glass-bottomed multi-well plates. To induce cancer cell death, one group was treated with the multi-kinase inhibitor, staurosporine (STS), and the control group was untreated. After 24 h, the structure and metabolic status of tumor fragments were imaged based on the intrinsically fluorescent metabolic co-factor nicotinamide dinucleotides (NAD(P)H) fluorescence intensity using multiphoton microscopy with 720 nm excitation. […] For structural reference, the second harmonic generation was also imaged (blue).

EMT6 tumor fragments [2] = experiment: Label-free MP-FLIM of NAD(P)H fluorescence lifetime in cultured tumor fragments; type: cell-based, mouse; settings: 24 hours of exposure vs 0 h, p<0.002
Procedure: Live EMT6 tumors were cut into tissue fragments that were then sorted and cultured in glass-bottomed multi-well plates. To induce cancer cell death, one group was treated with the multi-kinase inhibitor, staurosporine (STS), and the control group was treated with the vehicle (Veh). Before (0 h) and after treatment (24 h), the structure and metabolic status of tumor fragments were imaged based on the intrinsically fluorescent metabolic co-factor nicotinamide dinucleotides (NAD(P)H) fluorescence intensity and lifetime using MP-FLIM by time-correlated single photon counting. The data was analyzed by fitting fluorescence decay curves with dual exponents. […] Each dot represents one fragment.

CT26 tumor fragments = experiment: Supernatant cytokines of live tumor fragments by LEGENDPlex bead immunoassay, mouse; type: cell-based; settings: mouse specimens, cultured 48 or 72 h
Procedure: (§1) Human tumor excisions were obtained from the University of Wisconsin (Institutional Review Board (IRB) approved) and CT26 tumors were grown in mice. Tumor excisions were cut into […] live tumor fragments of 100-300 μm thickness, sorted into multi-well plates, and cultured for 48 or 72 h in the presence or absence of anti-PD1 (nivolumab or mouse equivalent), anti-PD1 plus anti-CTLA4 (ipilimumab or mouse equivalent), or concanavalin A (ConA) as a positive control. Cell viability was ascertained by ATP luminescence assay or flow cytometry (not shown). Supernatant cytokines were measured using LEGENDPlex bead immunoassay. […] The presence of cytokines was greater in wells with 10 fragments than in wells with 3 fragments, indicating suitability of culture conditions.

[3] = tested on: human live tumor fragments; experiment: Supernatant cytokines of live tumor fragments by LEGENDPlex bead immunoassay, human; type: cell-based; settings: cultured 48 or 72 h; for presence of IFN-γ and cytokines associated with immune activation relative to the untreated control: human samples
Procedure: as §1

Compound: COc1cccc2c1C(=O)c1c(O)c3c(c(O)c1C2=O)C[C@@](O)(C(=O)CO)C[C@@H]3O[C@H]1C[C@H](N)[C@H](O)[C@H](C)O1 [doxorubicin]
- appearance of doxorubicin-characteristic fluorescence in the periphery of tissue fragment (live tumor fragment): 15 min
- full-thickness staining of the entire fragment area (live tumor fragment): 2 h

Compound: CN[C@@H]1C[C@H]2O[C@@](C)([C@@H]1OC)n1c3ccccc3c3c4c(c5c6ccccc6n2c5c31)C(=O)NC4 [staurosporine]
- PI-stained nuclei (dead cells) (EMT6 tumor fragments [1]): increased numbers of PI-stained nuclei
- NAD(P)H intensity (EMT6 tumor fragments [1]; 720 nm excitation): loss of NAD(P)H intensity
- NAD(P)H short lifetime component (a1) (EMT6 tumor fragments [2]): concomitant decrease
- whole fragment NAD(P)H mean lifetime (tm) (EMT6 tumor fragments [2]): statistically significant increase

Compound: anti-PD1: immunotherapy drug anti-PD1 (nivolumab or mouse equivalent)
- presence of IFN-γ and cytokines associated with immune activation, fold increase in relation to the untreated control (CT26 tumor fragments): greater presence of IFN-γ and 10 cytokines
- cytokine panel upregulation, fold increase relative to untreated control ([3]; human LTFs): cytokine panel upregulation was observed
- presence of IFN-γ and cytokines associated with immune activation relative to the untreated control [3]: greater presence of IFN-γ and 16 cytokines

Compound: concanavalin A [ConA]
- presence of IFN-γ and cytokines associated with immune activation relative to the untreated control [3]: greater presence of IFN-γ and 16 cytokines
